From paper PMC13198257, “An aerosolized dual-action autotaxin inhibitor-PPARγ agonist for the treatment of pulmonary fibrosis” (Cell Reports Medicine, 2026)

Tested on: lung gene expression
Assay: RNA sequencing of lung tissue (BLM/EL244 vs BLM)
Type: in vivo, mouse
Description: RNA quality was assessed using an Agilent TapeStation 4150 with the High Sensitivity […] ScreenTape (Agilent), according to the manufacturer’s protocols. For library preparation, the QuantSeq 3’mRNA-Seq Library Prep Kit (Lexogen) was used according to manufacturer’s instructions. Briefly, 500 ng of RNA from each sample was used for first-strand synthesis, followed by RNA template removal, and second-strand synthesis initiated by random primers. In-line barcodes were introduced at this step, and this was followed by magnetic bead-based purification. The resulting libraries were amplified for 15 cycles and re-purified, with quantity and quality assessed on a Qubit 4 Fluorometer with the Invitrogen Qubit dsDNA HS Assay and an Agilent Tapestation 4150 with the High Sensitivity D1000 assay kit, respectively. The quantified libraries were pooled equimolarly; 50ng of total library mix was used for Adapter Conversion PCR Amplification using the Universal Library Conversion Kit (App-A), Version: V1.0 (MGI Tech Co., Ltd.), according to the manufacturer’s instructions.
The quantity and quality of the purified adapter conversion PCR (AC-PCR) product were evaluated on a Qubit 4 Fluorometer with the Invitrogen Qubit dsDNA HS Assay and on an Agilent Tapestation 4150 with the High Sensitivity D1000 assay kit, respectively. This was followed by DNA denaturation, Single-Strand Circularisation, Enzymatic Digestion, Enzymatic Digestion Product Cleanup and Quality Control steps on 1 pmol of AC-PCR product, according to the Universal Library Conversion Kit (App-A) User Manual (Version: A3).
Finally, 60 fmol of ssCirDNA were used for DNB preparation and sequencing on a DNBSEQ-G400 platform at the BSRC Alexander Fleming Genomics Facility, using a G400 App-A FCS SE100 High-throughput Sequencing Set (MGI Tech Co., Ltd.), according to the manufacturer’s instructions.
Alignment of the FASTQ files was performed against the mouse genome build mm10 using a custom Bash script.[143] Read counting on the 3′ UTRs and differential expression analysis were conducted using the metaseqR2 bioconductor package.[144] Genes corresponding to the following biotypes were excluded: polymorphic_pseudogene, processed_transcript, pseudogene, IG_V_pseudogene, misc_RNA, IG_C_gene, IG_J_gene, IG_D_gene, IG_LV_gene, TR_V_gene, TR_V_pseudogene, TEC, and processed_pseudogene. Gene counts were normalized with DESEQ[145] through metaseqR2. Genes with more than 10 counts in at least 50% of the samples were kept for further processing. For differential expression analysis, the PANDORA algorithm[146] was used to estimate a meta p-value integrating the results from the DESEQ, DESEQ2,[147] edgeR,[148] limma,[149] NBPSeq,[150] and NOISeq[151] algorithms. All additional parameters were set to default values.
Pathway enrichment analysis was performed for the Gene Ontology Biological process (BP) and Molecular Function (MF) terms through GeneCodis 4.[152] The volcano plots, scatterplots, Venn diagrams, and dot plots were generated using the ggplot2 Bioconductor package.

Question: With `O=C1NC(=O)C(Cc2ccc(OCCC3CCN(C(=O)OCc4cc(Cl)cc(Cl)c4)CC3)cc2)S1` (stereo not shown) [EL244, 3,5-dichlorobenzyl 4-(2-(4-((2,4-dioxothiazolidin-5-yl)methyl)phenoxy)ethyl)piperidine-1-carboxylate] as the compound, how does the “Ear1 log2 nFC BLM/EL244 vs BLM” value (DEG Ear1, nFC: normalised fold change) read?
Answer: 1.11

Question: And the “Ednrb log2 nFC BLM/EL244 vs BLM” value (DEG Ednrb, nFC: normalised fold change)?
Answer: 0.97

Question: And the “Elmod1 log2 nFC BLM/EL244 vs BLM” value (DEG Elmod1, nFC: normalised fold change)?
Answer: 0.89

Question: What about the “Eml5 log2 nFC BLM/EL244 vs BLM” value (DEG Eml5, nFC: normalised fold change) of the same compound?
Answer: 1.41

Question: And the “Eng log2 nFC BLM/EL244 vs BLM” value (DEG Eng, nFC: normalised fold change)?
Answer: 0.81

Question: What about the “Errfi1 log2 nFC BLM/EL244 vs BLM” value (DEG Errfi1, nFC: normalised fold change) of the same compound?
Answer: 0.95

Question: And the “Esm1 log2 nFC BLM/EL244 vs BLM” value (DEG Esm1, nFC: normalised fold change)?
Answer: 1.28

Question: What about the “Fabp3 log2 nFC BLM/EL244 vs BLM” value (DEG Fabp3, nFC: normalised fold change) of the same compound?
Answer: 0.98

Question: And the “Fabp12 log2 nFC BLM/EL244 vs BLM” value (DEG Fabp12, nFC: normalised fold change)?
Answer: 1.43

Question: What about the “Faim2 log2 nFC BLM/EL244 vs BLM” value (DEG Faim2, nFC: normalised fold change) of the same compound?
Answer: 2.03

Question: And the “Fam71f2 log2 nFC BLM/EL244 vs BLM” value (DEG Fam71f2, nFC: normalised fold change)?
Answer: 1.96

Question: What about the “log2 nFC BLM/EL244 vs BLM” value (DEG Fcgr1) of the same compound?
Answer: -1.30

Question: What about the “log2 nFC BLM/EL244 vs BLM” value (DEG Fcrls) of the same compound?
Answer: -1.35

Question: What about the “log2 nFC BLM/EL244 vs BLM” value (DEG Fgf13) of the same compound?
Answer: -1.40

Question: What about the “log2 nFC BLM/EL244 vs BLM” value (DEG Fkbp10) of the same compound?
Answer: -1.25

Question: What about the “Fmo1 log2 nFC BLM/EL244 vs BLM” value (DEG Fmo1, nFC: normalised fold change) of the same compound?
Answer: 0.86

Question: What about the “Fmo2 log2 nFC BLM/EL244 vs BLM” value (DEG Fmo2, nFC: normalised fold change) of the same compound?
Answer: 1.00

Question: And the “Fosb log2 nFC BLM/EL244 vs BLM” value (DEG Fosb, nFC: normalised fold change)?
Answer: 2.38

Question: And the “log2 nFC BLM/EL244 vs BLM” value (DEG Foxm1)?
Answer: -1.56

Question: And the “Fxyd1 log2 nFC BLM/EL244 vs BLM” value (DEG Fxyd1, nFC: normalised fold change)?
Answer: 0.80

Question: And the “Fzd4 log2 nFC BLM/EL244 vs BLM” value (DEG Fzd4, nFC: normalised fold change)?
Answer: 0.69

Question: And the “Galnt15 log2 nFC BLM/EL244 vs BLM” value (DEG Galnt15, nFC: normalised fold change)?
Answer: 0.89

Question: What about the “log2 nFC BLM/EL244 vs BLM” value (DEG Gas2l3) of the same compound?
Answer: -1.32

Question: What about the “Ggt1 log2 nFC BLM/EL244 vs BLM” value (DEG Ggt1, nFC: normalised fold change) of the same compound?
Answer: 1.91

Question: And the “log2 nFC BLM/EL244 vs BLM” value (DEG Gins2)?
Answer: -1.57

Question: And the “Gm867 log2 nFC BLM/EL244 vs BLM” value (DEG Gm867, nFC: normalised fold change)?
Answer: 2.18

Question: And the “Gm4956 log2 nFC BLM/EL244 vs BLM” value (DEG Gm4956, nFC: normalised fold change)?
Answer: 1.08

Question: And the “Gm9780 log2 nFC BLM/EL244 vs BLM” value (DEG Gm9780, nFC: normalised fold change)?
Answer: 2.06

Question: And the “Gm14964 log2 nFC BLM/EL244 vs BLM” value (DEG Gm14964, nFC: normalised fold change)?
Answer: 1.87

Question: And the “Gm20186 log2 nFC BLM/EL244 vs BLM” value (DEG Gm20186, nFC: normalised fold change)?
Answer: 1.31

Question: And the “Gm26236 log2 nFC BLM/EL244 vs BLM” value (DEG Gm26236, nFC: normalised fold change)?
Answer: 1.03

Question: And the “Gm42722 log2 nFC BLM/EL244 vs BLM” value (DEG Gm42722, nFC: normalised fold change)?
Answer: 1.79

Question: And the “Gm47291 log2 nFC BLM/EL244 vs BLM” value (DEG Gm47291, nFC: normalised fold change)?
Answer: 0.98

Question: What about the “Gm49353 log2 nFC BLM/EL244 vs BLM” value (DEG Gm49353, nFC: normalised fold change) of the same compound?
Answer: 2.21

Question: And the “Gm49391 log2 nFC BLM/EL244 vs BLM” value (DEG Gm49391, nFC: normalised fold change)?
Answer: 0.96

Question: What about the “Gnao1 log2 nFC BLM/EL244 vs BLM” value (DEG Gnao1, nFC: normalised fold change) of the same compound?
Answer: 0.85

Question: And the “Gnmt log2 nFC BLM/EL244 vs BLM” value (DEG Gnmt, nFC: normalised fold change)?
Answer: 1.14

Question: What about the “Gpm6a log2 nFC BLM/EL244 vs BLM” value (DEG Gpm6a, nFC: normalised fold change) of the same compound?
Answer: 0.83

Question: What about the “Gpr155 log2 nFC BLM/EL244 vs BLM” value (DEG Gpr155, nFC: normalised fold change) of the same compound?
Answer: 0.76

Question: And the “Gprasp1 log2 nFC BLM/EL244 vs BLM” value (DEG Gprasp1, nFC: normalised fold change)?
Answer: 0.72

Question: And the “Gpt log2 nFC BLM/EL244 vs BLM” value (DEG Gpt, nFC: normalised fold change)?
Answer: 0.73

Question: And the “Gria1 log2 nFC BLM/EL244 vs BLM” value (DEG Gria1, nFC: normalised fold change)?
Answer: 1.61

Question: What about the “Gsn log2 nFC BLM/EL244 vs BLM” value (DEG Gsn, nFC: normalised fold change) of the same compound?
Answer: 1.06

Question: And the “Gsta3 log2 nFC BLM/EL244 vs BLM” value (DEG Gsta3, nFC: normalised fold change)?
Answer: 1.10

Question: And the “Gstm1 log2 nFC BLM/EL244 vs BLM” value (DEG Gstm1, nFC: normalised fold change)?
Answer: 0.75

Question: What about the “log2 nFC BLM/EL244 vs BLM” value (DEG Gtse1) of the same compound?
Answer: -1.49

Question: What about the “log2 nFC BLM/EL244 vs BLM” value (DEG Gxylt2) of the same compound?
Answer: -1.47

Question: And the “Gzma log2 nFC BLM/EL244 vs BLM” value (DEG Gzma, nFC: normalised fold change)?
Answer: 1.70

Question: And the “log2 nFC BLM/EL244 vs BLM” value (DEG H2ac11)?
Answer: -1.45

Question: What about the “log2 nFC BLM/EL244 vs BLM” value (DEG H2ac12) of the same compound?
Answer: -1.44

Question: What about the “Hba-a1 log2 nFC BLM/EL244 vs BLM” value (DEG Hba-a1, nFC: normalised fold change) of the same compound?
Answer: 1.21

Question: What about the “Hba-a2 log2 nFC BLM/EL244 vs BLM” value (DEG Hba-a2, nFC: normalised fold change) of the same compound?
Answer: 1.14

Question: What about the “Hbb-bs log2 nFC BLM/EL244 vs BLM” value (DEG Hbb-bs, nFC: normalised fold change) of the same compound?
Answer: 1.10

Question: What about the “Hbb-bt log2 nFC BLM/EL244 vs BLM” value (DEG Hbb-bt, nFC: normalised fold change) of the same compound?
Answer: 1.09

Question: What about the “log2 nFC BLM/EL244 vs BLM” value (DEG Hells) of the same compound?
Answer: -1.30

Question: And the “Hhatl log2 nFC BLM/EL244 vs BLM” value (DEG Hhatl, nFC: normalised fold change)?
Answer: 2.05

Question: What about the “Hlf log2 nFC BLM/EL244 vs BLM” value (DEG Hlf, nFC: normalised fold change) of the same compound?
Answer: 0.89

Question: What about the “Igf1r log2 nFC BLM/EL244 vs BLM” value (DEG Igf1r, nFC: normalised fold change) of the same compound?
Answer: 0.70
